Experimental data published in patent US20210227837A1, “NATAMYCIN FOR THE PRESERVATION OF A BAKED PRODUCT” (DSM IP ASSETS B.V., priority 2018, published 2021).

Key:
[1] = Stability of natamycin solutions in aqueous potassium sorbate (residual natamycin by HPLC); assay type: physicochemical
Procedure: Natamycin concentrations were determined using […] as follows. • HPLC system: Waters iClass • Column: Waters Symmetry C18, 4.6×150 mm, 3.5 μm, Part No. WAT200632, Column no. 1483, Lot no. 0198313011 • Column temperature: 25° C. • Eluent A: 50 mM ammonium acetate buffer pH 5.8 (with acetic acid) • Eluent B: Acetonitrile • Wash: 60% acetonitrile/40% water (v/v) • Injection volume: 10 μl • Injector temperature: 10° C. in darkness • Flow: 1 mL/min
The reverse phase HPLC uses a UV detector to determine the residual concentration of natamycin at 303 nm. A set of standard dilutions containing subsequently increasing concentrations of natamycin in methanol was made and from these a calibration curve was obtained. The concentration of natamycin should not exceed a concentration of 88 mg/L. Generally, the dilutions contained 20 mg of sample and […] of methanol.
To obtain a 1% solution, 33 mg of natamycin was used instead of 0.2 g and heating during dissolution was omitted, resulting in a salt/natamycin ratio of 45 (w/w) or 200 (mole/mole). Samples of the mixtures were analyzed over time by HPLC for residual natamycin concentration. The shelf life test of the mixtures was done by storage at low temperatures (4-7° C.) and ambient temperatures (20-24° C.).

[2] = neutral pH values; cited from earlier work

SMILES: C[C@@H]1C/C=C/C=C/C=C/C=C/[C@H](O[C@@H]2O[C@H](C)[C@@H](O)[C@H](N)[C@@H]2O)C[C@@H]2O[C@](O)(C[C@@H](O)C[C@H]3O[C@@H]3/C=C/C(=O)O1)C[C@H](O)[C@H]2C(=O)O [natamycin]
- Residual natamycin (%) ([1]; 4-7° C., pH 9.7, natamycin 6% (w/w), day 0): 103%
- Residual natamycin (%) ([1]; 4-7° C., pH 9.7, natamycin 6% (w/w), day 5): 103%
- Residual natamycin (%) ([1]; 4-7° C., pH 9.7, natamycin 6% (w/w), day 6): 99%
- Residual natamycin (%) ([1]; 4-7° C., pH 9.7, natamycin 6% (w/w), day 12): 100%
- Residual natamycin (%) ([1]; 4-7° C., pH 9.7, natamycin 6% (w/w), day 31): 92%
- Residual natamycin (%) ([1]; 4-7° C., pH 9.7, natamycin 6% (w/w), day 42): 92%
- Residual natamycin (%) ([1]; 4-7° C., pH 9.7, natamycin 6% (w/w), day 49): 88%
- Residual natamycin (%) ([1]; 4-7° C., pH 9.7, natamycin 6% (w/w), day 69): 80%
- Residual natamycin (%) ([1]; 20-24° C., pH 9.6, natamycin 6% (w/w), day 0): 105%
- Residual natamycin (%) ([1]; 20-24° C., pH 9.6, natamycin 6% (w/w), day 2): 104%
- Residual natamycin (%) ([1]; 20-24° C., pH 9.6, natamycin 6% (w/w), day 6): 98%
- Residual natamycin (%) ([1]; 20-24° C., pH 9.6, natamycin 6% (w/w), day 8): 98%
- Residual natamycin (%) ([1]; 20-24° C., pH 9.6, natamycin 6% (w/w), day 15): 97%
- Residual natamycin (%) ([1]; 20-24° C., pH 9.6, natamycin 6% (w/w), day 20): 95%
- Residual natamycin (%) ([1]; 20-24° C., pH 9.6, natamycin 6% (w/w), day 23): 93%
- Residual natamycin (%) ([1]; 20-24° C., pH 9.6, natamycin 6% (w/w), day 34): 81%
- Residual natamycin (%) ([1]; 20-24° C., pH 9.6, natamycin 6% (w/w), day 65): 73%
- Residual natamycin (%) ([1]; 20-24° C., pH 9.9, natamycin 1% (w/w), day 0): 104%
- Residual natamycin (%) ([1]; 20-24° C., pH 9.9, natamycin 1% (w/w), day 2): 101%
- Residual natamycin (%) ([1]; 20-24° C., pH 9.9, natamycin 1% (w/w), day 6): 97%
- Residual natamycin (%) ([1]; 20-24° C., pH 9.9, natamycin 1% (w/w), day 8): 94%
- Residual natamycin (%) ([1]; 20-24° C., pH 9.9, natamycin 1% (w/w), day 15): 88%
- Residual natamycin (%) ([1]; 20-24° C., pH 9.9, natamycin 1% (w/w), day 20): 79%
- Residual natamycin (%) ([1]; 20-24° C., pH 9.9, natamycin 1% (w/w), day 23): 80%
- Residual natamycin (%) ([1]; 20-24° C., pH 9.9, natamycin 1% (w/w), day 34): 62%
- Residual natamycin (%) ([1]; 20-24° C., pH 9.9, natamycin 1% (w/w), day 65): 45%
- solubility in water [2]: around 0.04 g/kg
